Active and inactive are the calls of the source.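 Rule for the calls: active = tumour findings in long-term animal cancer tests in more than one sex, species or organ; inactive = no tumour finding and more than one negative test.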
assay: DSSTox (CPDBAS) Carcinogenic Potency Database Summary MultiCellCall Results; conditions: animal carcinogenicity bioassays, multi-cell call summary
Method in brief: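 ActivityScore sums 50 for multispecies, 30 for multisex and 20 for multisite positivity. Based on the most positive experiment per sex-species across standardised chronic rodent and other animal cancer tests.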

SMILES | outcome
Cc1cccn2c1nc1ccc(N)nc12 | active; multisite active; multisex active; multispecies active
CCCCC(CC)COC(=O)CCCCC(=O)OCC(CC)CCCC (stereo not drawn) | active; multisex active
CCCCCCCCCCN(C)N=O | active; multisite active
CC1=CC(=O)CC(C)(C)C1 | active; multisite active
O=[N+]([O-])O | inactive; multisex inactive
CCCCCCCCCCC(C)c1ccc(S(=O)(=O)O)cc1 (stereo not drawn) | inactive; multisex inactive
C/C=C(\C)C(=O)O[C@@H]1CCN2CC=C(COC(=O)C(O)(C(C)C)C(C)O)[C@H]12 (stereo partly drawn) | active; multisite active
CC(C)(C)NC[C@H](O)COc1cccc2c1CCCC2=O | inactive; multisex inactive; multispecies inactive
O=C1Nc2ccc(Cl)cc2C(c2ccccc2)=NC1O (stereo not drawn) | active; multisite active; multisex active
Clc1ccc(-c2cccc(Cl)c2Cl)c(Cl)c1 | active; multisite active; multisex active
S=C1NCCN1 | active; multisite active; multisex active; multispecies active
C/C=C(/C)C(=O)O[C@H]1CCN2CC=C(COC(=O)[C@](O)([C@H](C)OC)C(C)(C)O)[C@H]12 | active; multisite active; multisex active
O=NN(c1ccccc1)c1ccccc1 | active; multisex active
NCCCCCCCCCCC(=O)O | active; multisite active
Cc1cccc(OCC(O)CNC(C)(C)C)c1C (stereo not drawn) | inactive; multisex inactive
CCCCNNCCCC | active; multisite active; multisex active
CC(C)Oc1ccc(Nc2ccccc2)cc1 | inactive; multisex inactive
Cc1ccccc1[N+](=O)[O-] | active; multisite active; multisex active; multispecies active
CC1=CC(=C(c2ccc(N)cc2)c2ccc(N)cc2)C=CC1=N | inactive; multisex inactive; multispecies inactive
N#Cc1c(Cl)c(Cl)c(Cl)c(C#N)c1Cl | active; multisex active
ClC(Cl)C(Cl)Cl | active; multisex active
CN(C)N=O | active; multisite active; multisex active; multispecies active
Nc1nnc(-c2ccc([N+](=O)[O-])o2)o1 | active; multisite active
Cc1cc(C)nc(-c2ccc([N+](=O)[O-])o2)n1 | active; multisite active
Nc1cc(S(=O)(=O)O)cc2cc(S(=O)(=O)O)c(N=Nc3ccc(-c4ccc(N=Nc5c(S(=O)(=O)O)cc6cc(S(=O)(=O)O)cc(N)c6c5O)cc4)cc3)c(O)c12 | active; multisex active

SMILES | outcome
O[C@@H]([C@H](O)[C@@H](O)CBr)[C@@H](O)CBr | active; multisite active; multisex active; multispecies active
COc1ccc([C@@H]2CC(=O)c3c(O)cc(O[C@@H]4O[C@H](CO[C@@H]5O[C@@H](C)[C@H](O)[C@@H](O)[C@H]5O)[C@@H](O)[C@H](O)[C@H]4O)cc3O2)cc1OC | inactive; multisex inactive
O=C1O[C@@H](CN2CCOCC2)CN1/N=C/c1ccc([N+](=O)[O-])o1 | active; multisite active
FC(F)Cl | inactive; multisex inactive; multispecies inactive
COc1cc2c(c3oc(=O)c4c(c13)CCOC4=O)C1C=COC1O2 (stereo not drawn) | active; multisite active; multispecies active
CCc1cccc2c3c([nH]c12)C(CC)(CC(=O)O)OCC3 (stereo not drawn) | inactive; multisex inactive; multispecies inactive
Cc1noc(NS(=O)(=O)c2ccc(N)cc2)c1C | inactive; multisex inactive; multispecies inactive
CN1C(=O)C(O)N=C(c2ccccc2)c2cc(Cl)ccc21 (stereo not drawn) | inactive; multisex inactive
CC(=O)Nc1ccc2c(c1)Cc1cc(NC(C)=O)ccc1-2 | inactive; multispecies inactive
FC(F)=C(F)F | active; multisite active; multisex active; multispecies active
O=c1[nH]cc(F)c(=O)[nH]1 | active; multisite active; multisex active
Clc1ccc(C(c2ccc(Cl)cc2)C(Cl)Cl)cc1 | active; multisite active; multisex active
CC(=O)C(N=Nc1ccc(-c2ccc(N=NC(C(C)=O)C(=O)Nc3ccccc3)c(Cl)c2)cc1Cl)C(=O)Nc1ccccc1 (stereo not drawn) | inactive; multisex inactive; multispecies inactive
Clc1cccc(-c2ccc(Cl)c(Cl)c2Cl)c1Cl | active; multisite active; multisex active; multispecies active
CN(N=O)C(=O)NCCC[C@H](N)C(=O)O | active; multisite active; multisex active
Oc1ccccc1 | inactive; multisex inactive; multispecies inactive
C=CN1CCCC1=O | active; multisite active; multisex active
O=C(C1CCCCC1)N1CC(=O)N2CCc3ccccc3C2C1 (stereo not drawn) | inactive; multisex inactive; multispecies inactive
CN1C(=O)CN=C(c2ccccc2)c2cc(Cl)ccc21 | inactive; multisex inactive; multispecies inactive
C=CC(=O)NCO | active; multisite active; multisex active
O=C(O)c1cc(Oc2ccc(C(F)(F)F)cc2Cl)ccc1[N+](=O)[O-] | active; multisite active; multisex active
O=[N+]([O-])c1ccc2nc[nH]c2c1 | active; multisex active
C=CBr | active; multisite active; multisex active
C=C(Cl)Cl | active; multisite active; multisex active
CCCCCl | inactive; multisex inactive; multispecies inactive

SMILES | outcome
C=CC(=C)C | active; multisite active; multisex active; multispecies active
[C-]1=CC=CC1.[C-]1=CC=CC1.[Cl-].[Cl-].[Ti+4] | inactive; multisex inactive
CCc1nc(N)nc(N)c1-c1ccc(Cl)cc1 | inactive; multisex inactive; multispecies inactive
Nc1ccc(N)c(Cl)c1 | inactive; multisex inactive; multispecies inactive
Cc1cc(C(C)(C)C)c(O)c(C(C)(C)C)c1 | active; multisite active
O.O=S(=O)([O-])[O-].[Mn+2] | inactive; multisex inactive; multispecies inactive
OCCN(CCO)CCO | active; multisex active
CCN(N=O)C(N)=O | active; multisite active; multisex active
FC(F)(F)C(Cl)Cl | active; multisite active; multisex active
O=C1c2ccccc2C(=O)c2ccccc21 | inactive; multisex inactive
CCCCN(CCCC)C(=S)[S-].CCCCN(CCCC)C(=S)[S-].[Ni+2] | inactive; multisex inactive
C=CCN(CC=C)N=O | active; multisex active; multispecies active
CCCc1ccc2c(c1)OCO2 | active; multisite active; multisex active; multispecies active
CCC1C(=O)OCC1Cc1cncn1C (stereo not drawn) | inactive; multisex inactive
CN(C)C(=S)SC(=S)N(C)C | inactive; multisex inactive
O=C(O)Cc1cccc2ccccc12 | inactive; multisex inactive
CCNC(=O)Nc1ncc([N+](=O)[O-])s1 | active; multisite active; multisex active; multispecies active
O=c1[nH]c(=O)n(C2CCCO2)cc1F (stereo not drawn) | inactive; multisex inactive; multispecies inactive
CC[C@H]1OC(=O)C[C@@H](O)[C@H](C)[C@@H](O[C@@H]2O[C@H](C)[C@@H](O[C@H]3C[C@@](C)(O)[C@@H](O)[C@H](C)O3)[C@H](N(C)C)[C@H]2O)[C@@H](CC=O)C[C@@H](C)C(=O)/C=C/C(C)=C/C1CO[C@@H]1O[C@H](C)[C@@H](O)[C@@H](OC)[C@H]1OC (stereo partly drawn) | inactive; multisex inactive
COc1cc(NC(=O)C(N=Nc2ccc(-c3ccc(N=NC(C(C)=O)C(=O)Nc4cc(OC)c(Cl)cc4OC)c(Cl)c3)cc2Cl)C(C)=O)c(OC)cc1Cl (stereo not drawn) | inactive; multispecies inactive
CCCNN | active; multisex active
CC(=O)OC/C=C(C)/C=C/C=C(C)/C=C/C1=C(C)CCCC1(C)C | active; multisex active
O=P1(NCCCl)OCCCN1CCCl (stereo not drawn) | active; multisite active; multisex active; multispecies active
ClC(Cl)=C(Cl)C(Cl)=C(Cl)Cl | active; multisex active
N[C@@H](Cc1cnc[nH]1)C(=O)O | inactive; multisex inactive

SMILES | outcome
NC(=O)c1ccncc1 | inactive; multisex inactive
OCCO | inactive; multisex inactive
CC(C)NCC(O)COc1ccc(CC(N)=O)cc1 (stereo not drawn) | inactive; multisex inactive
O=C(O)CC[N+](=O)[O-] | inactive; multisex inactive; multispecies inactive
Nc1ccc2ccccc2c1 | active; multisite active; multisex active; multispecies active
CC/C(C)=N/O | active; multispecies active
CCCCCCCCCC[N+](C)(C)[O-] | inactive; multisex inactive
ClCc1ccccc1 | active; multisex active
Nc1ccc(Oc2ccc(Cl)cc2)cc1 | active; multisite active; multisex active; multispecies active
COc1ccc(N)c(C)c1 | active; multisex active
CCBr | active; multisite active; multisex active; multispecies active
NC(=O)Cc1c([O-])on[n+]1Cc1ccccc1 | active; multisex active; multispecies active
CCCCCCCC/C=C\CCCCCCCC(=O)O | inactive; multisex inactive
CN=C(NC#N)NCCSCc1nc[nH]c1C | inactive; multisex inactive; multispecies inactive
C=CC=C | active; multisite active; multisex active; multispecies active
CCC(C)c1cc([N+](=O)[O-])cc([N+](=O)[O-])c1O (stereo not drawn) | inactive; multisex inactive
Cc1cnc(NC(=O)C2=C(O)c3ccccc3S(=O)(=O)N2C)s1 | inactive; multisex inactive
Nc1ccccc1C(=O)O | inactive; multisex inactive; multispecies inactive
CCC1(c2ccccc2)C(=O)N=C(O)NC1=O (stereo not drawn) | active; multisex active; multispecies active
O=c1cc[nH]c(=O)[nH]1 | active; multisex active; multispecies active
Cc1cn([C@H]2C[C@H](N=[N+]=[N-])[C@@H](CO)O2)c(=O)[nH]c1=O | active; multispecies active
CC(=O)Nc1ccc(C(=O)CCl)cc1 | inactive; multisex inactive; multispecies inactive
NC(=S)NNC(N)=S | inactive; multisex inactive; multispecies inactive

Source: PubChem BioAssay AID1205 (EPA DSSTox, 2008)
